Measurements as given in patent US8431593B2, “Heteroaryl amide derivatives” (H. Lundbeck A/S, priority 2006, dated 2013).
Read-outs that look alike come from different tables or passages of the source. Blank lines part the entries; values can stand above or below the molecule they belong to.

Target: T1, P2X7 receptor (Homo sapiens, UniProt Q99572)
T1 construct: host or cells: SH-SY5Y
T1 sequence (Q99572 1-595): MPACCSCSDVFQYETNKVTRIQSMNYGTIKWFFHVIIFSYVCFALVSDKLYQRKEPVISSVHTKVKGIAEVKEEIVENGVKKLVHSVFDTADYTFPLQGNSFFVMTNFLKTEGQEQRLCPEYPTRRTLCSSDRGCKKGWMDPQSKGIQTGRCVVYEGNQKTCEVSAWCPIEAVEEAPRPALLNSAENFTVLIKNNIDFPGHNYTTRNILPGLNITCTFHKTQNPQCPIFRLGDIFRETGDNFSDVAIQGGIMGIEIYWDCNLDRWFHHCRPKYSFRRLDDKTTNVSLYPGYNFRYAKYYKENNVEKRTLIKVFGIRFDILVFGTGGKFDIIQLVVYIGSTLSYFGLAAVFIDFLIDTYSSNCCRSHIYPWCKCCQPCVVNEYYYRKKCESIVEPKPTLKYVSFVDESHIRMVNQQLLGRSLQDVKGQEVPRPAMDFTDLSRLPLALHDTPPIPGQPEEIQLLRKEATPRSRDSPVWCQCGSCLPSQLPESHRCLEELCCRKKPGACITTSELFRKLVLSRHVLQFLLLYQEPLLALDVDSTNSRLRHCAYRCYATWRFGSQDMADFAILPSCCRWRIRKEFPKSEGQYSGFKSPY
Experiment: P2X7 calcium mobilization assay, high throughput, antagonist activity (Example 4A)
Type: cell-based
Method in brief: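 Cells plated 100,000/well the day before; after 1 h dye loading and one rinse, cells were preincubated 1 h at room temperature with test compound. Calcium mobilization then read on FLIPR^TETRA; maximum RFU corrected by subtracting mean no-agonist response and referenced to mean agonist-control maximum.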

[1] = 50% decrease in the fluorescence response of cells exposed to 80 μM 2′(3′)-O-(4-benzoyl-benzoyl)adenosine 5′-triphosphate, Example 4A, read-out: IC50
[2] = SH-SY5Y cells, 50% decrease in fluorescence response to 80 μM BzATP, read-out: IC50
[3] = 50% decrease in the fluorescence response of cells exposed to 80 μM of 2′(3′)-O-(4-benzoyl-benzoyl)adenosine 5′-triphosphate, Example 4A, read-out: IC50
[4] = 50% decrease in the fluorescence response of cells exposed to 80 μM of 2′(3′)-O-(4-benzoyl-benzoyl)adenosine 5′-triphosphate, determined as in Example 4A, read-out: IC50
[5] = P2X7 calcium mobilization, Example 4A, 50% decrease in the fluorescence response of cells exposed to 80 μM of (2′(3′)-O-(4-benzoyl-benzoyl)adenosine 5′-triphosephate), read-out: IC50
[6] = fluorescence response of cells exposed to 80 μM 2′(3′)-O-(4-benzoyl-benzoyl)adenosine 5′-triphosphate, Example 4A, read-out: IC50

IC50 [2]: < 2 µM
Compound: CC(C)NC(=O)Cc1cn2c(C(=O)NCC34CC5CC(CC(C5)C3)C4)cccc2n1 [Compound 150, N-(adamantan-1-ylmethyl)-2-[2-(isopropylamino)-2-oxoethyl]imidazo[1,2-a]pyridine-5-carboxamide]

IC50 [4]: < 2 µM
Compound: COc1cccc(CC(C(=O)O)c2cn3c(C(=O)NCC45CC6CC(CC(C6)C4)C5)cccc3n2)c1 (stereo not drawn) [Compound 843, 2-{5-[(adamantan-1-ylmethyl)carbamoyl]imidazo[1,2-a]pyridin-2-yl}-3-(3-methoxyphenyl) propanoic acid]

IC50 [5]: < 2 µM
Compound: CC(=O)OC(C)OC(=O)N[C@@H]1CCCN(C(=O)Cc2cn3c(C(=O)NCC45CC6CC(CC(C6)C4)C5)cccc3n2)C1 (stereo partly drawn) [Compound 1060, 1-({[(3R)-1-({5-[(adamantan-1-ylmethyl)carbamoyl]imidazo[1,2-a]pyridin-2-yl}acetyl)piperidin-3-yl]carbamoyl}oxy)ethyl acetate]

IC50 [3]: < 2 µM
Compound: CCOC(=O)C(CC(=O)N(C)C)c1cn2c(C(=O)NCC34CC5CC(CC(C5)C3)C4)cccc2n1 (stereo not drawn) [Compound 809, ethyl 2-{5-[(adamantan-1-ylmethyl)carbamoyl]imidazo[1,2-a]pyridin-2-yl}-4-(dimethylamino)-4-oxobutanoate]

IC50 [6]: < 2 µM
Compound: CCNC(=O)Cc1cn2c(C(=O)NCC(CC(C)C)c3ccccc3)cccc2n1 (stereo not drawn) [Compound 220, 2-[2-(ethylamino)-2-oxoethyl]-N-(4-methyl-2-phenylpentyl) imidazo [1,2-a]pyridine-5-carboxamide]

IC50 [2]: < 2 µM
Compound: CN(CCO)C(=O)c1cn2c(C(=O)NCC34CC5CC(CC(C5)C3)C4)cccc2n1 [Compound 9, 5-N-(adamantan-1-ylmethyl)--(2-hydroxyethyl)-- methylimidazo[1,2-a]pyridine-2,5-dicarboxamide]

IC50 [4]: < 2 µM
Compound: O=C(Cc1cn2c(C(=O)NCC3(c4ccc(C(F)(F)F)cc4)CCCCC3)cccc2n1)NC1CCCC1 [Compound 877, 2-[2-(cyclopentylamino)-2-oxoethyl]-N-({1-[4-(trifluoromethyl)phenyl]cyclohexyl}methyl) imidazo[1,2-a] pyridine-5-carboxamide]

IC50 [4]: < 2 µM
Compound: CC(C)CC(CNC(=O)c1cccc2nc(Cn3nccc3N)cn12)c1ccc(Cl)cc1 (stereo not drawn) [Compound 836, 2-[(5-amino-1H-pyrazol-1-yl)methyl]-N-[2-(4-chlorophenyl)-4-methylpentyl] imidazo [1,2-a]pyridine-5-carboxamide]

IC50 [4]: < 2 µM
Compound: O=C(Cc1cn2c(C(=O)NC3CCCCC3)cccc2n1)NCC1(c2ccc(Cl)cc2)CCCCC1 [Compound 980, 2-[2-({[1-(4-chlorophenyl)cyclohexyl]methyl}amino)-2-oxoethyl]-N-cyclohexyl-imidazo[1,2-a]pyridine-5-carboxamide]

The remaining lines, values behind:

Compound: CCCCN(CC)C(=O)c1cn2c(C(=O)NC[C@@H]3CC[C@H]4C[C@@H]3C4(C)C)cccc2n1 [Compound 475, 2-N-butyl-5-N-{[(1S,2R,5S)-6,6-dimethylbicyclo[3.1.1]hept-2-yl]methyl}-2-N-ethylimidazo[1,2-a]pyridine-2,5-dicarboxamide]
IC50 [1]: < 2 µM

Compound: C[C@@H](O)CNC(=O)Cc1cn2c(C(=O)NCC34CC5CC(CC(C5)C3)C4)cccc2n1 [Compound 28, N-(adamantan-1-ylmethyl)-2-(2-{[(2R)-2-hydroxy-propyl]amino}-2-oxoethyl)imi-dazo[1,2-a]pyridine-5-carboxamide]
IC50: < 2 µM

Compound: CN(C)C1CCCN(C(=O)Cc2cn3c(C(=O)NC[C@H]4CCC5CC4C5(C)C)cccc3n2)C1 (stereo partly drawn) [Compound 790, 2-{2-[3-(dimethylamino)piperidin-1-yl]-2-oxoethyl}-N-{[(2S)-6,6-dimethylbicyclo [3.1.1]hept-2-yl]methyl}imidazo [1,2-a]pyridine-5-carboxamide]
IC50 [3]: < 2 µM

Compound: CC(C)(C)OC(=O)N[C@@H]1CCN(Cc2cn3c(C(=O)NCC(CC4CC4)c4ccccc4)cccc3n2)C1 (stereo in doubt) [Compound 776, tert-butyl [1-({5-[(3-cyclopropyl-2-phenylpropyl)carbamoyl]imidazo[1,2-a]pyridin-2-yl}methyl)pyrrolidin-3-yl]carbamate]
IC50 [3]: < 2 µM

Compound: CC(C)CC(CNC(=O)c1cccc2nc(CCO)cn12)c1cccnc1 (stereo not drawn) [Compound 545, 2-(2-hydroxyethyl)-N-(4-methyl-2-pyridin-3-ylpentyl)imidazo[1,2-a]pyridine-5-carboxamide]
IC50 [1]: < 2 µM

Compound: CC1(C)[C@H]2CC[C@@H](CNC(=O)c3cccc4nc(C(=O)N5CCSCC5)cn34)[C@@H]1C2 [Compound 462, N-{[(1S,2R,5S)-6,6-dimethylbicyclo[3.1.1]hept-2-yl]methyl}-2-(thiomorpholin-4-ylcarbonyl)imidazo[1,2-a]pyridine-5-carboxamide]
IC50 [1]: < 2 µM

Compound: CCc1ccc(CN(C)C(=O)c2cn3c(C(=O)NCC45CC6CC(CC(C6)C4)C5)cccc3n2)cn1 [Compound 712, 5-N-(adamantan-1-ylmethyl)-2-N-[(6-ethylpyridin-3-yl)methyl]-2-N-methylimidazo[1,2-a]pyridine-2,5-dicarboxamide]
IC50 [3]: < 2 µM

Compound: O=C(NCC1(c2ccc(Cl)cc2)CCCCC1)c1cccc2nc(Cn3nnc(CCO)n3)cn12 [Compound 919, N-{[1-(4-chlorophenyl)cyclohexyl]methyl}-2-{[5-(2-hydroxyethyl)-2H-tetrazol-2-yl]methyl}imidazo[1,2-a]pyridine-5-carboxamide]
IC50 [4]: < 2 µM

Compound: CN1CCC(N(C)C(=O)c2cn3c(C(=O)NCC45CC6CC(CC(C6)C4)C5)cccc3n2)CC1 [Compound 671, 5-N-(adamantan-1-ylmethyl)-2-N-methyl-2-N-(1-methylpiperidin-4-yl)imidazo[1,2-a]pyridine-2,5-dicarboxamide]
IC50 [3]: < 2 µM

Compound: CC(C)CC(CNC(=O)c1cccc2nc(CCN3CCCC3)cn12)c1ccc(C(F)(F)F)cc1 (stereo not drawn) [Compound 1042, N-{4-methyl-2-[4-(Irifluoromethyl)phenyl]pentyl}-2-(2-pyrrolidin-1-ylethyl) imidazo[1,2-a]pyridine-5-carboxamide]
IC50 [5]: < 2 µM

Compound: Cn1nnnc1SCc1cn2c(C(=O)NCC34CC5CC(CC(C5)C3)C4)cccc2n1 [Compound 532, N-(adamantan-1-ylmethyl)-2-{[(1-methyl-1H-tetrazol-5-yl)thio]methyl}imidazo [1,2-a]pyridine-5-carboxamide]
IC50 [1]: < 2 µM

Compound: CC(C)(C)OC(=O)N[C@@H]1CCN(Cc2cn3c(C(=O)NCC(CC4CCCCC4)c4ccccc4)cccc3n2)C1 (stereo partly drawn) [Compound 785, tert-butyl [1-({5-[(3-cyclohexyl-2-phenylpropyl)carbamoyl]imidazo[1,2-a]pyridin-2-yl}methyl)pyrrolidin-3-yl]carbamate]
IC50 [3]: < 2 µM

Compound: CC1(C)C2CC[C@H](CNC(=O)c3cccc4nc(CC(=O)N5CCC[C@@H](N)C5)cn34)C1C2 (relative stereo) [Compound 550, rel-2-{2-[(3R)-3-aminopiperidin-1-yl]-2-oxoethyl}-N-{[(2S)-6,6-dimethylbicyclo[3.1.1]hept-2-yl]methyl}imidazo[1,2-a]pyridine-5-carboxamide]
IC50 [1]: < 2 µM

Compound: O=C(Cc1cn2c(C(=O)NCC34CC5CC(CC(C5)C3)C4)cccc2n1)NC1CN2CCC1CC2 (stereo not drawn) [Compound 684, N-(adamantan-1-ylmethyl)-2-[2-(1-azabicyclo[2.2.2]oct-3-ylamino)-2-oxoethyl]imidazo[1,2-a]pyridine-5-carboxamide]
IC50 [3]: < 2 µM

Compound: Cc1nn(Cc2cn3c(C(=O)NCC45CC6CC(CC(C6)C4)C5)cccc3n2)cc1C(=O)O [Compound 275, 1-({5-[(adamantan-1-ylmethyl)carbamoyl]imidazo [1,2-a]pyridin-2-yl}methyl)-3-methyl-1H-pyrazole-4-carboxylic acid]
IC50 [6]: < 2 µM

Compound: CN(C)C1CCCN(C(=O)Cc2cn3c(C(=O)NCC4(c5ccc(Cl)cc5)CCCCC4)cccc3n2)C1 (stereo not drawn) [Compound 894, N-{[1-(4-chlorophenyl)cyclohexyl]methyl}-2-{2-[3-(dimethylamino)piperidin-1-yl]-2-oxoethyl} imidazo[1,2-a] pyridine-5-carboxamide]
IC50 [4]: < 2 µM

Compound: O=C(O)CCNC(=O)c1cn2c(C(=O)NCC34CC5CC(CC(C5)C3)C4)cccc2n1 [Compound 544, N-({5-[(adamantan-1-ylmethyl)carbamoyl)imidazo[1,2-a]pyridin-2-yl}carbonyl)-beta-alanine]
IC50 [1]: < 2 µM

Compound: CCOC(=O)C(Cc1ccccn1)c1cn2c(C(=O)NCC(CC(C)C)c3ccc(Cl)cc3)cccc2n1 (stereo not drawn) [Compound 930, ethyl 2-(5-{[2-(4-chlorophenyl)-4-methylpentyl]carbamoyl}imidazo[1,2-a]pyridin-2-yl)-3-pyridin-2-ylpropanoate]
IC50 [4]: < 2 µM
